The source of these data is article PMC8165744, “Identification of an Alternative Glycyrrhizin Metabolite Causing Liquorice-Induced Pseudohyperaldosteronism and the Development of ELISA System to Detect the Predictive Biomarker” (Frontiers in Pharmacology, 2021).

Data set [1] in a line: binding of compound 4 to albumin in pooled EHBR plasma (ultrafiltration). In kind it is in vitro ADME, Eisai hyperbilirubinuria rats (EHBRs). The conditions noted are these: female, Eisai hyperbilirubinuria rat (EHBR), rat, 200 mg/kg; pooled plasma of EHBRs 12 h after oral GA. How it is done: (§1) Binding of Compound 4 to Albumin
(§2) We measured the binding ratios of 4 to albumin in pooled plasma of female EHBRs using the same protocol used in our previous study ([Ishiuchi et al., 2019]).
(§3) The pooled plasma samples collected from EHBRs 12 h after oral treatment with GA were loaded into ultracentrifuge filters with a 1 × 10^4 molecular weight cut-off and concentrated by centrifugation. The concentrations of 4 in the pooled plasma and the filtrate were 77 µM and undetectable, respectively. Based on the detection limits (3.2 nM) in the LC-MS/MS analysis, the albumin-binding ratios of 4 in the plasma was calculated to be more than 99.9%.

Data set [2] concerns the target T1, albumin (Rattus norvegicus, UniProt P02770).
T1 construct: from tissue; host or cells: pooled plasma of EHBRs orally treated with GA
The description is as above. In kind it is in vitro ADME, Eisai hyperbilirubinuria rats (EHBRs). The method, then: as §1, §2, §3

A short description of data set [3]: pharmacokinetics of GA metabolites in EHBRs orally treated with GA. The conditions noted are these: Eisai hyperbilirubinuria rat (EHBR), rat, plasma, 200 mg/kg, GA 0.20 g/kg oral, read-out: plasma concentration 12 h after oral administration of GA. The data set is classed as in vivo, Eisai hyperbilirubinuria rats (EHBRs). The method, then:
Pharmacokinetic Experiments of GA Metabolites in EHBRs Orally Treated With GA
Male and female EHBRs (9 week-old) were anaesthetized by an intraperitoneal injection of urethane (1 g/kg) and their jugular veins were exposed. GA suspended in 0.5% carboxymethylcellulose was then administered orally (200 mg/kg) to the unconscious rats, and blood samples were collected from the jugular vein while urine samples were collected using a metabolic cage at appropriate times over a 12 h period.
LC-MS/MS Analysis for GA Metabolites
(§4) Briefly, after diluting serum and urine samples with water to obtain suitable concentrations, they were digested with subtilisin (0.91 U/ml), followed by the addition of astragaloside IV (used as an internal standard; Fujifilm Wako Pure Chemicals, Osaka, Japan), and deproteinized using 80% ethanol. […] The transitions (precursor to daughter) monitored and retention times were as follows: ESI(+), 743.4 to 567.5 m/z (35 and 25 V for cone voltage and collision energy, respectively) for compound 1 (8.1 min); ESI(–), 565.5 to 96.5 m/z (80 and 60 V) for 2 (9.6 min); ESI(–), 549.5 to 96.5 m/z (80 and 60 V) for 3 (15.4 min); ESI(+), 727.3 to 551.2 m/z (30 and 25 V) for 4 (11.3 min); ESI(+), 647.6 to 453.6 m/z (40 and 20 V) for 3MGA (15.0 min); ESI(+), 471.3 to 91.0 m/z (40 and 20 V) for GA (13.4 min); ESI(+), 823.5 to 453.6 m/z (30 and 20 V) for GL (18.4 min); and ESI(+), 785.4 to 143.0 m/z (30 and 20 V) for astragaloside IV (3.0 min). Linear regressions over the concentration range of 2 nM to 2 µM for each compound were examined using the peak-area ratio of the compounds to their internal standards and the least-squares method (r ^ 2 > 0.98). The detection limits for 1, GL, and GA were 6.4 nM, and those for 2, 3, and 4, and 3MGA were 3.2 nM.
FIGURE 5 Pharmacokinetic profiles of glycyrrhizin (GL) metabolites in female (A–C) and male (D–F) Eisai hyperbilirubinuria rats (EHBRs). […] Data of GA, 3MGA, 1, 2, and 3 in (A) and GA, 3MGA, 2, and 3 for (D) are relatively small; their magnified graphs are shown in (B,E), respectively. Concentrations of GA metabolites were measured using liquid chromatography-tandem mass spectrometry (LC-MS/MS), and data are means ± standard error (S.E: n = 4).

Data set [4] can be described thus: measurement of GL metabolites in human serum and urine samples (LC-MS/MS). The data set is classed as in vivo. How it is done: Measurement of Compound 4 in Human Serum Samples
Human serum samples (100 µl) were pre-treated as described in the protocol reported in our previous study ([Takahashi et al., 2019]), and the concentration of 4 was measured using LC-tandem mass spectrometry (MS/MS) as described below. This study was conducted with the approval of the appropriate ethics committee at Keio University, Chiba University, Kanazawa University, and Kameda Medical Center.
as §4

Data set [5] deals with anti-3MGA-mAb. Kind of data set: competitive ELISA using anti-3MGA-mAb. In kind it is binding. To be noted: competitive ELISA in aqueous solution, 3MGA calibrated to 100%. The method, then:
ELISA System Using anti-3MGA-mAb
An ELISA system to measure the cross-reactivity of compounds 3 and 4 by using 3MGA-HSA-conjugate and anti-3MGA-mAb was used according to the protocol in our previous study ([Ishiuchi et al., 2019]). To measure the concentration of 3 in human serum samples using the system ELISA, 3 was dissolved in normal human serum (Sigma) to prepare standard solutions (16 nM–2.0 µM) and the samples or standard solutions (each 10 µl) and ethanol (40 µl) were well mixed and centrifuged (1.2 × 10^4 × g for 7 min). The supernatant was dried up under nitrogen flow at 40°C overnight, and the residue was dissolved in Can Get Signal® Solution 1 (Toyobo Co., Ltd: Osaka, Japan) (50 µl). […] When the observed values were more than 400 nM, the deproteinized serum samples were further diluted with Can Get Signal® Solution 1 for two or four times and analyzed again to observe values from 15.6 to 400 nM.
FIGURE 4 Development of enzyme-linked immunosorbent assay (ELISA) system to measure concentrations of 3 in human serum samples using anti-18β-glycyrrhetyl-3-O-glucuronide (3MGA)-monoclonal antibody (mAb). […] Standard lines between absorbance and concentrations of compound 3 are shown (D) Accuracy of ELISA system in measuring concentrations of 3 in human serum samples using anti-3MGA-mAb. Human serum samples were deproteinized, and concentration of 3 was measured using ELISA system. […]

T1 sequence (P02770 25-608): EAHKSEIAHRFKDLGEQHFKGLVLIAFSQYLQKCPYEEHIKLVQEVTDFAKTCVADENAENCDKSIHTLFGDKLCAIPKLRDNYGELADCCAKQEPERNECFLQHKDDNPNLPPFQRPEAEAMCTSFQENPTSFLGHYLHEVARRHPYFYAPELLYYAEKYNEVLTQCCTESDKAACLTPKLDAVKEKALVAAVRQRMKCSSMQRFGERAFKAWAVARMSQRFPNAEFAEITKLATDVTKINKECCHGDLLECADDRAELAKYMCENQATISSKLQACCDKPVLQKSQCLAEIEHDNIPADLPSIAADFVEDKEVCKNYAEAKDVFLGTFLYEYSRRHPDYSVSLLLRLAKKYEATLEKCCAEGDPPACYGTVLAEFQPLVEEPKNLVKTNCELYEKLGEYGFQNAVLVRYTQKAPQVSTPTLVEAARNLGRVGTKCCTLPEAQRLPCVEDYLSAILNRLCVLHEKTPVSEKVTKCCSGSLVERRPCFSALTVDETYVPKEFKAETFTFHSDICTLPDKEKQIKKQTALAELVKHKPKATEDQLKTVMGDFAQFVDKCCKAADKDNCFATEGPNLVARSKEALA

On to `CC1(C)[C@@H](OS(=O)(=O)O)CC[C@]2(C)[C@H]3C(=O)C=C4[C@@H]5C[C@@](C)(C(=O)O[C@@H]6O[C@H](C(=O)O)[C@@H](O)[C@H](O)[C@H]6O)CC[C@]5(C)CC[C@@]4(C)[C@]3(C)CC[C@@H]12` [Compound 4, 18β-glycyrrhetyl-3-O-sulfate-30-O-glucuronide], for which the concentration at 12 h in data set [1] stood at 77 µM; in data set [3] (female EHBRs), 208 µM; in data set [3] (male EHBRs), 237 µM. The “albumin-binding ratio in plasma” value in data set [2] (pooled EHBR plasma, 1 × 10^4 MW cut-off filter, calculated from detection limit 3.2 nM) is given as “more than 99.9%”. Besides, the concentration in filtrate result in data set [2] (ultracentrifuge filtrate of pooled EHBR plasma) is recorded as “undetectable”. For the same molecule, the “serum concentration of 4 relative to that of 3 (fold lower)” value in data set [4] (human serum, patients with suspected pseudohyperaldosteronism) is given as “approximately 10 fold”. Moreover, the concentration in urine in data set [4] (human, one urine sample among 20 available samples) is 0.003 µM. Further, the “number of serum samples in which compound was detected” value in data set [4] (of 70 participants taking liquorice-containing herbal preparations) was found to be 62 samples. Also, the “cross-reactivity to anti-3MGA-mAb” value in data set [5] was determined as 40%.
